Values quoted from earlier work in US20020022057A1, “Oral delivery of pharmaceuticals via encapsulation” (priority 2000, published 2002).

How the values were obtained:
[1] = applied topically to the skin
[2] = sublingual versus oral

skin reactions, including erythema and peeling [1]	Compound	sublingual applications more effective than oral applications [2] [%]
30 % of the subjects	CC(=O)Oc1ccccc1C(=O)O [Aspirin, aspirin]	–
–	CC(=O)[C@H]1CC[C@H]2[C@@H]3CCC4=CC(=O)CC[C@]4(C)[C@H]3CC[C@]12C [progesterone]	50
